Laboratory results reported in PMC10536132, “Arginine Gemini-Based Surfactants for Antimicrobial and Antibiofilm Applications: Molecular Interactions, Skin-Related Anti-Enzymatic Activity and Cytotoxicity” (Molecules, 2023).
Marks after values point to notes of the source that are not given here.

Key:
[1] = Water solubility (qualitative); format: physicochemical; settings: qualitative statement
From the text: In all cases, the pKap values are smaller than those described by Fitch, as well as those cited in many biochemistry textbooks. The presence of fatty chains in arginine surfactants induces the formation of aggregates in which the positive charges are close to each other. As a result, the repulsion between these charges induces the release of protons, thus increasing the acid character of the compound. The cmc is mainly governed by the hydrophobic content of the molecules. For the same spacer chain, the cmc drastically decreases as the alkyl chain increases. For the same alkyl chain of 12 carbon atoms, the cmc slightly diminishes as the number of the methylene groups in the spacer increases. Unconventional aggregation behavior and two cmcs were inferred from different techniques. The first cmcs, inferred primarily from tension data, are between 0.002 and 0.005 mM. Fluorescence and conductivity experiments indicated a second cmc at concentrations two orders of magnitude higher than that from surface tension (0.3–0.6 mM). The low cmc obtained by surface tension measurements was ascribed to non-globular aggregates with small aggregation numbers larger than two or three, given the nearly constant surface tension above these cmc. The surface tension values at the first cmc were in the same order for all gemini surfactants. […]

[2] = set-up: method as in doi:10.1021/la981295l; settings: cited from earlier work
[3] = set-up: method as in doi:10.1021/la981295l; settings: cited from earlier work; remark: listed apart in the source
[4] = set-up: method as in doi:10.1021/la981295l; settings: cited from earlier work; remark: listed apart in the source
[5] = tested on: Gram-positive and Gram-negative bacteria; test: Minimum inhibitory concentration (MIC), broth microdilution; format: cell-based; settings: planktonic bacteria, 24 h at 37 °C, values only in Figure 2
From the text: The Gram-positive bacteria tested include some problematic microorganisms such us L. monocytogenes; these bacteria cause listeriosis, a serious disease that has grown considerably in industrialized countries due to the increased ratio of immunosuppressed persons and the extensive use of refrigerated food. We have also tested the effectivity of these surfactants against methicillin-resistant Staphylococcus aureus (MRSA), which is known as a major cause of hospital-acquired infections and, at this time, is a remarkable public health problem. […] For comparison, this figure also includes the MIC values of a LAM (lauroyl arginine methyl ester) surfactant that can be considered the single-stranded homologue of these geminis and the BAC (benzalkonium ammonium chloride), a quaternary ammonium surfactant widely used as antiseptic.
Antimicrobial tests were carried out against the following microorganisms: Bacillus subtilis ATCC 6633, Staphylococcus epidermidis ATCC 12228, Staphylococcus aureus ATCC 29213, Listeria monocytogenes ATCC 15313, Enterococcus faecalis ATCC 29212, Escherichia coli ATCC 25922, Acinetobacter baumannii ATCC 19606, Klebsiella aerogenes ATCC 13048, methicillin-resistant Staphylococcus aureus ATCC 43300 and Pseudomonas aeruginosa PAO1. […] The growth of the microorganisms was determined visually after incubation for 24 h at 37 °C. […]

[6] = tested on: Pseudomonas aeruginosa PAO1 biofilm; test: Biofilm eradication, crystal violet; format: cell-based; settings: P. aeruginosa PAO1, at 32 μg/mL
Method: (§1) The ability of these geminis to disperse and eradicate biofilms once formed on the propylene surfaces of the microtiter plates was evaluated using the same bacterial strains. […] The susceptibility of both biofilms against the tested surfactants was similar. At a low concentration of 32 μg/mL, C3(CA)2 and C3(LA)2 were able to eradicate around 60–70% of preformed biofilm; however, at this concentration, the […] hydrophobic compound, C3(OA)2, eradicated less than 30% of biofilm. At high concentrations, the eradication percentage is similar for all alkyl chains. […] In this case, at low concentrations, there is not a clear dependence between the antibiofilm properties and the spacer; however, at a high concentration, the best effectivity was obtained for the longer spacer chains.
(§2) Antibiofilm activity was assessed against biofilm-producing strains of methicillin-resistant Staphylococcus aureus (MRSA) ATCC 43300 and Pseudomonas aeruginosa PAO1. Biofilm inhibition and eradication capacities of the gemini surfactants were evaluated against adherent bacterial biofilms grown in 96-well microtiter plates. Bacteria were grown overnight in tryptic soy agar at 37 °C for 24 h. The bacteria were suspended in lysogeny broth with glucose (1%) at 1.5 × 10^8 CFU/mL.
(§3) Biofilm eradication procedure: For mature biofilm formation, 200 μL of the diluted bacterial suspension was added to each well in a 96-well microplate and incubated at 37 °C for 24 h. The wells were gently rinsed with phosphate-buffered saline (PBS) and 200 μL of the corresponding gemini surfactant solution was added to each well and incubated again at 37 °C for 24 h. Two-fold serial dilutions of the gemini surfactant were used (4–128 μg/mL). After the plates were air dried, the biofilms were stained with 50 μL of 0.1 of % crystal violet for 25 min. The plates were rinsed with water and then 150 μL of 96% ethanol containing 10% acetic acid was added to all 96-well plates to dissolve the remaining crystal violet-stained biofilm. The absorbance value was recorded at 570 nm. Each assay was conducted at least three times and the results were averaged.

[7] = tested on: methicillin-resistant Staphylococcus aureus (MRSA) ATCC 43300 biofilm; test: Biofilm eradication, crystal violet; format: cell-based; settings: at 32 μg/mL
Method: as §1, §2, §3

[8] = target: porcine pancreatic elastase (Sus scrofa, UniProt P00772); test: Elastase inhibitory assay; format: biochemical; settings: 40 µL of 1000 µg/mL stock; EGCG 250 μM
Method: The elastase inhibition was tested according to the method described by […] et al.. First, a stock solution of each surfactant at 1000 μg/mL was prepared in sterile ultrapure water. A stock solution of porcine pancreatic elastase at 3.33 mg/mL in sterile ultrapure water was also prepared. The substrate […] (Ala) 3-p-nitroanilide was dissolved in 0.2 mM Tris-HCl buffer solution (pH 8.0). The samples (40 μL) were then diluted and incubated together with the enzyme for 15 min prior to the substrate addition. Negative control was sterile ultrapure water, while EGCG (250 μM or 0.114 mg/mL) was used as the positive control. The absorbance at λ = 410 nm was measured immediately after the substrate addition and continuously during the next 2 h using an Elx800 Microplate Reader (Biotek®). […] The anti-elastase activity (in %), determined in triplicate, was calculated according to the following equation:(2) Elastase inhibitory activity %=A1-A2/A1×100 where A1 and A2 represent the absorbance in the absence and presence of the testing samples, respectively.

bovine hyaluronidase = test: Hyaluronidase inhibitory activity; format: biochemical; settings: positive control
Method: The hyaluronidase inhibitory activity was performed according to the method used by Altinyay et al. with some modifications. Briefly, a work solution containing bovine hyaluronidase (7900 units/mL) in 0.1 M acetate buffer (pH 3.6) was prepared. Fifty microliters of the work solution were mixed 1:1 with the surfactants’ solution in 5% DMSO. For the negative control, 50 μL of 5% DMSO was used, while EGCG was used as positive control. After 20 min of incubation at 37 °C, 50 μL of calcium chloride (12.5 mM) was added to the mixture and again incubated for 20 min at 37 °C. At that point, 250 μL sodium hyaluronate (1.2 mg/mL) was added and incubated for 40 min at 37 °C. After incubation, the mixture was treated with 50 μL of 0.4 M NaOH and 100 μL of 0.2 M sodium borate and then incubated for 3 min in a boiling water bath. After cooling to room temperature, 1.4 mL of p-dimethylaminobenzaldehyde solution was added to the reaction mixture, being further incubated at 37 °C for 20 min. The resulting colored solution was measured at λ = 585 nm (PerkinElmer-Lambda 35, Brazil). The hyaluronidase inhibitory activity of each sample was calculated according to the following formula:(3) Hyaluronidase inhibitory activity %=A1−A2/A1×100 where A1 and A2 represent the absorbance in the absence and presence of the testing sample, respectively.

[9] = tested on: Collagenase from Clostridium histolyticum (ChC); test: Collagenase inhibitory activity assay (FALGPA substrate); format: biochemical; settings: approximately 25 μg of sample in the reaction mixture, 15 min preincubation
Method: The inhibition of collagenase followed the methodology proposed by Thring et al.. First, a solution containing the surfactants at 1000 μg/mL was prepared. An aliquot of 40 μL of each sample was used in the assay. Collagenase from Clostridium histolyticum (ChC) was dissolved in tricine buffer (50 mM, pH 8.0) immediately before use at an initial concentration of 0.35 U/mL. The synthetic substrate N-[3- (2-furyl) acryloyl]-Leu-Gly-Pro-Ala (FALGPA) (40 μL) was dissolved in the kit buffer (60 μL) according to the supplier information. The samples of C3(LA)2, C6(LA)2 and C9(LA)2 were incubated with the enzyme for 15 min before the substrate addition. The final reaction mixture contained tricine buffer, 0.8 mM FALGPA, 0.1 U of ChC and approximately 25 μg of each surfactant. Ultrapure water was used as a negative control, while the positive control was EGCG solution, prepared at the same concentration of the surfactants. The absorbance at λ = 345 nm was measured immediately after the substrate incorporation and continuously during 20 min in kinetic mode using an Elx800 Microplate Reader Biotek® (Winooski, VT, USA). The collagenase inhibitory activity of each sample was determined in triplicate, according to the following equation:(1) Collagenase inhibitory activity %=A1−A2/A1×100 where A1 and A2 represent the absorbance in the absence and presence of sample, respectively.

porcine pancreatic elastase, sequence (P00772 27-266): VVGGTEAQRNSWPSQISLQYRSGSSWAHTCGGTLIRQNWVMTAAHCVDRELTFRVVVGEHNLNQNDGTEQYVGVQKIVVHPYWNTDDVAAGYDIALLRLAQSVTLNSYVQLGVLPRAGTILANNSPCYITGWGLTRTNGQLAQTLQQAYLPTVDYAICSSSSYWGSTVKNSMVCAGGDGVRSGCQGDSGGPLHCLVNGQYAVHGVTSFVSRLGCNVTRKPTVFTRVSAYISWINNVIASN

| water solubility [1] | SMILES | CMC (mM) Fluorescence [2] | CMC (mM) Conductivity [3] | CMC (mM) Surface Tension [4] | γcmc ([4]; surface tension at the cmc) | antimicrobial activity (MIC), in words [5] | preformed biofilm eradicated [6] | preformed biofilm eradicated [7] | anti-elastase activity (inhibition) [8] [%] | hyaluronidase inhibitory activity (bovine hyaluronidase) [%] | anti-collagenase activity (inhibition) [9] [%] |
| --- | --- | --- | --- | --- | --- | --- | --- | --- | --- | --- | --- |
| very good water solubility | CCCCCCCCCC(=O)NC(CCCNC(=N)N)C(=O)NCCCNC(=O)C(CCCNC(=N)N)NC(=O)CCCCCCCCC (centres unmarked) [C3(CA)2] | 3 * mM | 2 * mM | 0.043 * mM | 32 * mN/m | most active against all tested microorganisms | 60–70% | 60–70% |  |  |  |
|  | O=C(O[C@@H]1Cc2c(O)cc(O)cc2O[C@@H]1c1cc(O)c(O)c(O)c1)c1cc(O)c(O)c(O)c1 [EGCG, epigalocatequin-3-galate, reference compound] |  |  |  |  |  |  |  | 67.3 | 13 | 54.2 |
